Data as given in PubChem BioAssay (NCI).
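Following 48 hours of exposure in 96-well plates, responses at five concentrations were used to interpolate endpoints linearly. TGI is the concentration that stops growth completely.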

Experiments:
Experiment in all cases: NCI tumour cell line growth inhibition, 48 h
IGROV1 ovarian = test system: IGROV1 ovarian
MDA-MB-231 breast = test system: MDA-MB-231 breast
SR leukemia = test system: SR leukemia
OVCAR-3 ovarian = test system: OVCAR-3 ovarian
SF-268 CNS = test system: SF-268 CNS
HCT-15 colon = test system: HCT-15 colon
A549 NSCLC = test system: A549 NSCLC
COLO 205 colon = test system: COLO 205 colon
T-47D breast = test system: T-47D breast
A498 renal = test system: A498 renal
SNB-75 CNS = test system: SNB-75 CNS
CCRF-CEM leukemia = test system: CCRF-CEM leukemia
OVCAR-5 ovarian = test system: OVCAR-5 ovarian
NCI-H460 lung = test system: NCI-H460 lung
KM12 colon = test system: KM12 colon
SF-539 CNS = test system: SF-539 CNS
BT-549 breast = test system: BT-549 breast
RXF 393 renal = test system: RXF 393 renal
K-562 leukemia = test system: K-562 leukemia
HS 578T breast = test system: HS 578T breast

Row | Compound | TGI (IGROV1 ovarian) [µM] | TGI (MDA-MB-231 breast) [µM] | TGI (SR leukemia) [µM] | TGI (OVCAR-3 ovarian) [µM] | TGI (SF-268 CNS) [µM] | TGI (HCT-15 colon) [µM] | TGI (A549 NSCLC) [µM] | TGI (COLO 205 colon) [µM] | TGI (T-47D breast) [µM] | TGI (A498 renal) [µM] | TGI (SNB-75 CNS) [µM] | TGI (CCRF-CEM leukemia) [µM] | TGI (OVCAR-5 ovarian) [µM] | TGI (NCI-H460 lung) [µM] | TGI (KM12 colon) [µM] | TGI (SF-539 CNS) [µM] | TGI (BT-549 breast) [µM] | TGI (RXF 393 renal) [µM] | TGI (K-562 leukemia) [µM] | TGI (HS 578T breast) [µM]
1 | Nc1c(C(=O)c2ccc(Cl)cc2)[nH]c(Nc2ccc(Cl)cc2)c1C(=S)Nc1ccccc1 | 17.3 | 18.1 | 7.41 | 12.9 | 17.8 | 16.9 | 13.9 | 16.5 | > 100 | 28.9 | 6.6 | > 100 | 27.3 | 20.8 | 31.5 | 18.4 | 8.02 | 7.45 | 17.8 | 
2 | c1ccc(C2(c3ccccc3)S/C(=C3/SC(c4ccccc4)(c4ccccc4)c4ccccc43)c3ccccc32)cc1 | > 100 | > 100 | > 100 | > 100 | > 100 | > 100 | > 100 | > 100 |  | > 100 | > 100 | > 100 | > 100 | > 100 | > 100 | > 100 | > 100 | > 100 | > 100 | > 100
3 | CCCCC1CCCCCCc2[nH]c(/C=C3\N=C(c4ccc[nH]4)C=C3OC)cc21 (configuration not stated) | 1.29 | 1.76 |  | < 0.0224 | 2.13 | 1.9 | 0.0354 | 1.39 | 2.06 | 1.86 | 0.638 | 0.566 | 2 | 2.92 | 4.91 | 1.13 | 1.29 | 1.11 | 1.28 | 1.62
4 | COc1c(N2CCCCC2)c2c(=O)c3ccccc3oc2c2cc(C)oc12 |  | 44.2 |  | > 100 | > 100 | > 100 | > 100 | 18.3 |  | 61.6 | 42.9 | > 100 | > 100 | > 100 | 62.4 | > 100 | 97.9 | 70 | > 100 | 79.6
5 | COC1CC(=O)C2C(=O)N(c3ccccc3)C(=O)C23C(C(=O)c2ccccc2)=C(C)NC13O (configuration not stated) | 27.5 | 40 |  | 8.12 | 22.6 | 23.4 | > 100 | 25.1 | 14.1 | 47.7 |  | 28.9 | 54.5 | 45.4 | 35.6 | 21.8 | > 100 |  | 0.21 | 57.7
6 | Clc1ccc(C2ON=C(c3ccccc3)N2C23CC4CC(CC(C4)C2)C3)cc1Cl (configuration not stated) | > 10 | > 10 |  | > 10 | > 10 | > 10 | > 10 | > 10 | > 10 | > 10 | > 10 | > 10 | > 10 | > 10 | > 10 | > 10 | > 10 | > 10 | > 10 | > 10
7 | Cc1cccc(C)c1NC(=O)C(=O)C(c1ccccc1Cl)S(=O)(=O)Cc1ccccc1Cl (configuration not stated) | > 100 | > 73.4 | > 100 | > 100 | 66.6 | > 100 | > 100 | > 100 | > 100 |  | > 44.1 | > 100 | > 100 | > 100 | > 100 | 39.2 | > 83.5 | 80.2 | > 100 | > 100
8 | S=C(Nc1ccc(Cl)cc1)c1ccc(CN2CCCCC2)s1 | 8.82 |  | 19.5 | > 100 | > 100 | > 100 | > 100 | 14.2 |  | 29 |  | 12.5 | 32.1 | 21.9 | 56.8 | > 100 | 79.3 |  | 13.9 | > 100
9 | O=S(=O)(Nc1nc2ccccc2nc1Nc1cccc2ccccc12)c1ccccc1 | > 100 | 43.9 | > 100 | > 100 | > 100 |  | > 100 |  | > 100 |  | 57.6 |  | > 100 | > 100 | > 100 | > 100 | > 100 | 78.9 | > 100 | 95.2
10 | Cc1nnc(N2C(=O)C(=Cc3ccc(Cl)cc3)N=C2c2ccc(Cl)cc2)nc1/C=C\c1ccc(N(C)C)cc1 | > 100 | > 100 |  | > 100 | > 100 | > 100 | > 100 | > 100 | > 100 | > 100 | > 100 | > 100 | > 100 | > 100 | > 100 |  | > 100 | > 100 | > 100 | > 100
11 | Cn1cc(S(=O)(=O)NC(=O)Nc2ccc(Cl)cc2)c(=O)c2ccc(Cl)cc21 | > 100 | > 100 | > 100 | > 100 | > 100 | > 100 | > 100 |  | > 100 |  | > 100 | > 100 | > 100 | > 100 | > 100 | > 100 | > 100 | > 100 | > 100 | > 100
12 | Cc1ccc2c(=O)cc(-c3cc4ccccc4s3)[nH]c2n1 | > 100 | > 100 |  | > 100 | > 100 | > 100 | > 100 | > 100 | 48 |  | 67.6 | > 100 | > 100 | > 100 | > 100 |  | > 100 | 97.2 | > 100 | > 100
13 | CCC(C#N)NCc1ccc(CNC(C#N)CC)cc1 (configuration not stated) | > 100 | > 100 |  | > 100 | > 100 | > 100 | > 100 | > 100 | > 100 | > 100 |  | > 100 | > 100 | > 100 | > 100 | > 100 | > 100 | > 100 | > 100 | > 100
14 | O=C1c2ccccc2-c2nc(-c3cccs3)cc3c2c1nc1ccccc13 | 92.5 | > 100 | 34.5 | 9.39 | 56.8 | 57.1 | 63.5 | 37.5 |  |  | > 100 | > 100 | > 100 | > 100 | > 100 | > 100 | > 100 |  | > 100 | 90
15 | CC1(C)CC(=O)c2c([nH]c(=S)c(C#N)c2-c2ccc(Br)cc2)C1 | > 100 | > 100 | 51.7 | > 100 | > 100 | > 100 | > 100 |  |  | > 100 | > 100 | > 100 | > 100 | > 100 |  | > 100 | > 100 | > 100 | > 100 | > 100
16 | Cc1nc2ccc(F)cc2c2c1CCN2c1ccccc1 | > 100 |  | 37 | > 100 | > 100 | > 100 | 68 | 27.1 | 85.8 | 77.2 | 79.1 | 53.2 |  | 36.1 | > 100 | 44 | 44.2 | 35.7 | 33.4 | > 100
17 | c1cc2c(cc1NC1=NCCO1)CCCC2 | 23.5 | 6.1 |  | 16.8 | 25 | 22.4 | 39.9 | 3.8 | > 88.7 | 9.74 | 35.3 | > 26.7 | 39.7 | 15.7 | 10.5 | 6.25 | 75.7 | 14.2 | > 24.5 | 23
18 | Cc1ccc(N/C(=C(/C(Cl)=C(Cl)Cl)[N+](=O)[O-])n2nnc3ccccc32)cc1 |  |  |  | 34.3 | 36.8 | 52.3 | 37.3 | 28.4 | 52.5 |  | 35.4 | 64.5 | 41 | 34.4 | 47.7 | 31.3 | 37.6 |  | > 100 | 47.1
19 | CN(C)CCn1c2c(c3ccccc31)CCc1ccccc1-2 | 21.8 | 29.3 | 27.1 | 27.7 | 32.3 | 22.5 | 28.3 | 25.6 | 54.8 |  |  | 44.6 | 31.7 | 27.5 | 26.3 | 26.2 | 27.8 |  |  | 29.7
20 | Clc1ccc(-c2c3nc(c(-c4ccc(Cl)cc4)c4ccc([nH]4)c(-c4ccc(Cl)cc4)c4nc(c(-c5ccc(Cl)cc5)c5ccc2[nH]5)C=C4)C=C3)cc1 | > 100 | > 100 | > 100 | > 100 | > 100 | > 100 | > 100 | > 100 | > 100 |  | 63.4 | > 100 | > 100 | > 100 | > 100 | > 100 | > 100 |  | > 100 | > 100
